# Source: PMC6271825, “Synthesis and Cytotoxic Activity Evaluation of Novel Arylpiperazine Derivatives on Human Prostate Cancer Cell Lines” (Molecules, 2014)
# Legend:
# Format in all cases: cell-based
# RWPE-1 cells = experiment: CCK-8 in vitro cytotoxicity assay, RWPE-1 normal prostate epithelial cells; details: human prostate epithelial cell line RWPE-1 (normal), CCK-8, 24 h exposure, mean ± SD of three experiments
# Description: (§1) The synthesized target compounds 5 to 29 were evaluated for their in vitro cytotoxic activities against the three human prostate cancer cell lines (PC-3, LNCaP, and DU145), and compared with their effects on human prostate epithelial cell line RWPE-1 by CCK-8 assay.
# (§2) PC-3 and RWPE-1 cells were cultured in Dulbecco’s modification Eagle’s medium (DMEM, Invitrogen, Carlsbad, CA, USA) supplemented with 10% fetal bovine serum (FBS, Hyclone, Logan, UT, USA), 100 U/mL penicillin and 0.1 mg/mL streptomycin (Invitrogen). DU145 cells were cultured in RPMI1640 media supplemented with 10% fetal bovine serum (FBS, Hyclone), 100 U/mL penicillin and 0.1 mg/mL streptomycin (Invitrogen). LNCaP cells were cultured in F12 media supplemented with 10% fetal bovine serum (FBS, Hyclone), 100 U/mL penicillin and 0.1 mg/mL streptomycin (Invitrogen). The cells were incubated at 37 °C in a humidified atmosphere with 5% CO2.
# (§3) Cell proliferation was measured with the Cell Counting Kit-8 (CCK-8) assay kit (Dojindo Corp., Kumamoto, Japan). Cells were harvested during logarithmic growth phase and seeded in 96-well plates at a density of 1 × 10^5 cells/mL, and cultured at 37 °C in a humidified incubator (5% CO2) for 24 h, followed by exposure to various concentrations of compounds tested for 24 h. Subsequently 10 μL of CCK-8 (Dojindo) was added to each well, the cells were then incubated for an additional 1 h at 37 °C to convert WST-8 into formazan. Cell growth inhibition was determined by measuring the absorbance (Abs) at λ = 450 nm using amicroplate reader. Three independent experiments were performed. Cell growth inhibition was calculated according to the following equation: Growth inhibition = (1 − OD of treated cells/OD of control cells) × 100%
# (§4) The half maximal inhibitory concentrations (IC50) were obtained from linear regression analysis of the concentration-response curves plotted for each tested compound.
# DU145 cells = experiment: CCK-8 in vitro cytotoxicity assay, DU145; details: DU-145; human prostate cancer cell line DU145, CCK-8, 24 h exposure, mean ± SD of three experiments
# Description: as §1, §2, §3, §4
# PC-3 cells = experiment: CCK-8 in vitro cytotoxicity assay, PC-3; details: human prostate cancer cell line PC-3, CCK-8, 24 h exposure, mean ± SD of three experiments
# Description: as §1, §2, §3, §4
# LNCaP cells = experiment: CCK-8 in vitro cytotoxicity assay, LNCaP; details: human prostate cancer cell line LNCaP, CCK-8, 24 h exposure, mean ± SD of three experiments
# Description: as §1, §2, §3, §4
smiles,measurement,setting,value
"Fc1ccccc1N1CCN(CCc2ccc(COc3ccc4c(c3)OCO4)cc2)CC1 [Compound 15, 1-(2-(4-((Benzo[d][1,3]dioxol-5-yloxy)methyl)phenyl)ethyl)-4-(2-fluorophenyl)piperazine]",IC50,RWPE-1 cells,41 ± 0.47 µM
same,IC50,DU145 cells,> 50 µM
same,IC50,PC-3 cells,> 50 µM
"Brc1ccc(N2CCN(CCc3ccc(COc4ccc5c(c4)OCO5)cc3)CC2)cc1 [Compound 24, 1-(2-(4-((Benzo[d][1,3]dioxol-5-yloxy)methyl)phenyl)ethyl)-4-(4-bromophenyl)piperazine]",IC50,RWPE-1 cells,> 50 µM
same,IC50,DU145 cells,> 50 µM
same,IC50,PC-3 cells,> 50 µM
same,IC50,"LNCaP cells; Homo sapiens, LNCaP, 24 h",19.9 ± 1.01 µM
"Clc1cccc(N2CCN(CCc3ccc(COc4ccc5c(c4)OCO5)cc3)CC2)c1Cl [Compound 22, 1-(2-(4-((Benzo[d][1,3]dioxol-5-yloxy)methyl)phenyl)ethyl)-4-(2,3-dichlorophenyl)piperazine]",IC50,RWPE-1 cells,> 50 µM
same,IC50,DU145 cells,> 50 µM
same,IC50,PC-3 cells,> 50 µM
same,IC50,"LNCaP cells; Homo sapiens, LNCaP, 24 h",39.4 ± 0.54 µM
"Cc1ccc(N2CCN(CCc3ccc(COc4ccc5c(c4)OCO5)cc3)CC2)cc1 [Compound 10, 1-(2-(4-((Benzo[d][1,3]dioxol-5-yloxy)methyl)phenyl)ethyl)-4-p-tolylpiperazine]",IC50,RWPE-1 cells,> 50 µM
same,IC50,DU145 cells,47.8 ± 2.02 µM
same,IC50,PC-3 cells,> 50 µM
same,IC50,"LNCaP cells; Homo sapiens, LNCaP, 24 h",31.9 ± 0.89 µM
"Fc1ccc(N2CCN(CCc3ccc(COc4ccc5c(c4)OCO5)cc3)CC2)c(F)c1 [Compound 17, 1-(2-(4-((Benzo[d][1,3]dioxol-5-yloxy)methyl)phenyl)ethyl)-4-(2,4-difluorophenyl)piperazine]",IC50,RWPE-1 cells,23.9 ± 0.75 µM
same,IC50,DU145 cells,26.8 ± 0.92 µM
same,IC50,PC-3 cells,> 50 µM
same,IC50,"LNCaP cells; Homo sapiens, LNCaP, 24 h",26.8 ± 1 µM
"OC1(c2ccccc2)CCN(CCc2ccc(COc3ccc4c(c3)OCO4)cc2)CC1 [Compound 29, 1-(2-(4-((Benzo[d][1,3]dioxol-5-yloxy)methyl)phenyl)ethyl)-4-phenylpiperidin-4-ol]",IC50,RWPE-1 cells,19.73 ± 0.01 µM
same,IC50,DU145 cells,38.2 ± 2.45 µM
same,IC50,PC-3 cells,> 50 µM
same,IC50,"LNCaP cells; Homo sapiens, LNCaP, 24 h",43 ± 7.58 µM
"Clc1ccc(N2CCN(CCc3ccc(COc4ccc5c(c4)OCO5)cc3)CC2)cc1 [Compound 20, 1-(2-(4-((Benzo[d][1,3]dioxol-5-yloxy)methyl)phenyl)ethyl)-4-(4-chlorophenyl)piperazine]",IC50,RWPE-1 cells,> 50 µM
same,IC50,DU145 cells,> 50 µM
same,IC50,PC-3 cells,> 50 µM
same,IC50,"LNCaP cells; Homo sapiens, LNCaP, 24 h",> 50 µM
"COc1ccc(Cl)cc1N1CCN(CCc2ccc(COc3ccc4c(c3)OCO4)cc2)CC1 [Compound 23, 1-(2-(4-((Benzo[d][1,3]dioxol-5-yloxy)methyl)phenyl)ethyl)-4-(5-chloro-2-methoxyphenyl)piperazine]",IC50,RWPE-1 cells,35.9 ± 1.25 µM
same,IC50,DU145 cells,> 50 µM
same,IC50,PC-3 cells,> 50 µM
same,IC50,"LNCaP cells; Homo sapiens, LNCaP, 24 h",33.2 ± 2.69 µM
"COc1ccccc1N1CCN(CC(O)COc2cccc3ccccc23)CC1 (centres unmarked) [naftopidil, reference compound]",IC50,RWPE-1 cells,> 50 µM
same,IC50,DU145 cells,34.58 ± 0.31 µM
same,IC50,PC-3 cells,42.1 ± 0.79 µM
same,IC50,"LNCaP cells; Homo sapiens, LNCaP, 24 h",22.4 ± 0.61 µM
"COc1cccc(N2CCN(CCc3ccc(COc4ccc5c(c4)OCO5)cc3)CC2)c1 [Compound 14, 1-(2-(4-((Benzo[d][1,3]dioxol-5-yloxy)methyl)phenyl)ethyl)-4-(3-methoxyphenyl)piperazine]",IC50,RWPE-1 cells,39 ± 0.77 µM
same,IC50,DU145 cells,> 50 µM
same,IC50,PC-3 cells,> 50 µM
same,IC50,"LNCaP cells; Homo sapiens, LNCaP, 24 h",> 50 µM
"c1cnc(N2CCN(CCc3ccc(COc4ccc5c(c4)OCO5)cc3)CC2)nc1 [Compound 8, 2-(4-(2-(4-((Benzo[d][1,3]dioxol-5-yloxy)methyl)phenyl)ethyl)piperazin-1-yl)pyrimidine]",IC50,RWPE-1 cells,31.7 ± 3.14 µM
same,IC50,DU145 cells,8.25 ± 0.16 µM
same,IC50,PC-3 cells,> 50 µM
same,IC50,"LNCaP cells; Homo sapiens, LNCaP, 24 h",26.6 ± 0.86 µM
"Cc1cccc(N2CCN(CCc3ccc(COc4ccc5c(c4)OCO5)cc3)CC2)c1 [Compound 11, 1-(2-(4-((Benzo[d][1,3]dioxol-5-yloxy)methyl)phenyl)ethyl)-4-m-tolylpiperazine]",IC50,RWPE-1 cells,> 50 µM
same,IC50,DU145 cells,> 50 µM
same,IC50,PC-3 cells,> 50 µM
same,IC50,"LNCaP cells; Homo sapiens, LNCaP, 24 h",> 50 µM
"CC(=O)c1ccc(N2CCN(CCc3ccc(COc4ccc5c(c4)OCO5)cc3)CC2)cc1 [Compound 27, 1-(4-(4-(2-(4-((Benzo[d][1,3]dioxol-5-yloxy)methyl)phenyl)ethyl)piperazin-1-yl)phenyl)ethanone]",IC50,RWPE-1 cells,26.8 ± 3.01 µM
same,IC50,DU145 cells,> 50 µM
same,IC50,PC-3 cells,24.9 ± 0.68 µM
same,IC50,"LNCaP cells; Homo sapiens, LNCaP, 24 h",> 50 µM
"c1ccc(N2CCN(CCc3ccc(COc4ccc5c(c4)OCO5)cc3)CC2)cc1 [Compound 5, 1-(2-(4-((Benzo[d][1,3]dioxol-5-yloxy)methyl)phenyl)ethyl)-4-phenylpiperazine]",IC50,RWPE-1 cells,> 50 µM
same,IC50,DU145 cells,> 50 µM
same,IC50,PC-3 cells,> 50 µM
same,IC50,"LNCaP cells; Homo sapiens, LNCaP, 24 h",27.9 ± 1.72 µM
"COc1ccc(N2CCN(CCc3ccc(COc4ccc5c(c4)OCO5)cc3)CC2)cc1 [Compound 13, 1-(2-(4-((Benzo[d][1,3]dioxol-5-yloxy)methyl)phenyl)ethyl)-4-(4-methoxyphenyl)piperazine]",IC50,RWPE-1 cells,> 50 µM
same,IC50,DU145 cells,> 50 µM
same,IC50,PC-3 cells,> 50 µM
same,IC50,"LNCaP cells; Homo sapiens, LNCaP, 24 h",28.3 ± 0.49 µM
"FC(F)(F)c1ccccc1N1CCN(CCc2ccc(COc3ccc4c(c3)OCO4)cc2)CC1 [Compound 25, 1-(2-(4-((Benzo[d][1,3]dioxol-5-yloxy)methyl)phenyl)ethyl)-4-(2-(trifluoromethyl)phenyl)piperazine]",IC50,RWPE-1 cells,18.9 ± 3.68 µM
same,IC50,DU145 cells,> 50 µM
same,IC50,PC-3 cells,> 50 µM
same,IC50,"LNCaP cells; Homo sapiens, LNCaP, 24 h",32.96 ± 0.21 µM
"c1ccc(CN2CCN(CCc3ccc(COc4ccc5c(c4)OCO5)cc3)CC2)cc1 [Compound 6, 1-(2-(4-((Benzo[d][1,3]dioxol-5-yloxy)methyl)phenyl)ethyl)-4-benzylpiperazine]",IC50,RWPE-1 cells,38.8 ± 0.77 µM
same,IC50,DU145 cells,28.9 ± 0.98 µM
same,IC50,PC-3 cells,> 50 µM
same,IC50,"LNCaP cells; Homo sapiens, LNCaP, 24 h",27.7 ± 4.17 µM
"c1ccc(C2CCN(CCc3ccc(COc4ccc5c(c4)OCO5)cc3)CC2)cc1 [Compound 28, 1-(2-(4-((Benzo[d][1,3]dioxol-5-yloxy)methyl)phenyl)ethyl)-4-phenylpiperidine]",IC50,RWPE-1 cells,28.5 ± 2.18 µM
same,IC50,DU145 cells,24.7 ± 2.22 µM
same,IC50,PC-3 cells,> 50 µM
same,IC50,"LNCaP cells; Homo sapiens, LNCaP, 24 h",18.2 ± 1.88 µM
"Cc1ccccc1N1CCN(CCc2ccc(COc3ccc4c(c3)OCO4)cc2)CC1 [Compound 9, 1-(2-(4-((Benzo[d][1,3]dioxol-5-yloxy)methyl)phenyl)ethyl)-4-o-tolylpiperazine]",IC50,RWPE-1 cells,31 ± 1.57 µM
same,IC50,DU145 cells,> 50 µM
same,IC50,PC-3 cells,> 50 µM
same,IC50,"LNCaP cells; Homo sapiens, LNCaP, 24 h",< 5 µM
same,IC50,LNCaP cells,3.47 ± 0.36 µM
"N#Cc1ccc(N2CCN(CCc3ccc(COc4ccc5c(c4)OCO5)cc3)CC2)c(F)c1 [Compound 18, 4-(4-(2-(4-((Benzo[d][1,3]dioxol-5-yloxy)methyl)phenyl)ethyl)piperazin-1-yl)-3-fluorobenzonitrile]",IC50,RWPE-1 cells,> 50 µM
same,IC50,DU145 cells,> 50 µM
same,IC50,PC-3 cells,26.9 ± 1 µM
same,IC50,"LNCaP cells; Homo sapiens, LNCaP, 24 h",13.1 ± 0.51 µM
"COc1ccccc1N1CCN(CCc2ccc(COc3ccc4c(c3)OCO4)cc2)CC1 [Compound 12, 1-(2-(4-((Benzo[d][1,3]dioxol-5-yloxy)methyl)phenyl)ethyl)-4-(2-methoxyphenyl)piperazine]",IC50,RWPE-1 cells,> 50 µM
same,IC50,DU145 cells,> 50 µM
same,IC50,PC-3 cells,> 50 µM
same,IC50,"LNCaP cells; Homo sapiens, LNCaP, 24 h",30.7 ± 0.83 µM
"Clc1cccc(N2CCN(CCc3ccc(COc4ccc5c(c4)OCO5)cc3)CC2)c1 [Compound 21, 1-(2-(4-((Benzo[d][1,3]dioxol-5-yloxy)methyl)phenyl)ethyl)-4-(3-chlorophenyl)piperazine]",IC50,RWPE-1 cells,> 50 µM
same,IC50,DU145 cells,> 50 µM
same,IC50,PC-3 cells,> 50 µM
same,IC50,"LNCaP cells; Homo sapiens, LNCaP, 24 h",25.3 ± 1.55 µM
"c1ccc(N2CCN(CCc3ccc(COc4ccc5c(c4)OCO5)cc3)CC2)nc1 [Compound 7, 1-(2-(4-((Benzo[d][1,3]dioxol-5-yloxy)methyl)phenyl)ethyl)-4-(pyridin-2-yl)piperazine]",IC50,RWPE-1 cells,41.1 ± 0.54 µM
same,IC50,DU145 cells,> 50 µM
same,IC50,PC-3 cells,> 50 µM
same,IC50,"LNCaP cells; Homo sapiens, LNCaP, 24 h",31.2 ± 0.63 µM
"Clc1ccccc1N1CCN(CCc2ccc(COc3ccc4c(c3)OCO4)cc2)CC1 [Compound 19, 1-(2-(4-((Benzo[d][1,3]dioxol-5-yloxy)methyl)phenyl)ethyl)-4-(2-chlorophenyl)piperazine]",IC50,RWPE-1 cells,29.9 ± 0.8 µM
same,IC50,DU145 cells,> 50 µM
same,IC50,PC-3 cells,> 50 µM
same,IC50,"LNCaP cells; Homo sapiens, LNCaP, 24 h",26.6 ± 0.4 µM
"Fc1ccc(N2CCN(CCc3ccc(COc4ccc5c(c4)OCO5)cc3)CC2)cc1 [Compound 16, 1-(2-(4-((Benzo[d][1,3]dioxol-5-yloxy)methyl)phenyl)ethyl)-4-(4-fluorophenyl)piperazine]",IC50,RWPE-1 cells,> 50 µM
same,IC50,DU145 cells,> 50 µM
same,IC50,PC-3 cells,> 50 µM
same,IC50,"LNCaP cells; Homo sapiens, LNCaP, 24 h",32.5 ± 1.04 µM
"FC(F)(F)c1ccc(N2CCN(CCc3ccc(COc4ccc5c(c4)OCO5)cc3)CC2)cc1 [Compound 26, 1-(2-(4-((Benzo[d][1,3]dioxol-5-yloxy)methyl)phenyl)ethyl)-4-(4-(trifluoromethyl)phenyl)piperazine]",IC50,RWPE-1 cells,> 50 µM
same,IC50,DU145 cells,> 50 µM
same,IC50,PC-3 cells,> 50 µM
same,IC50,"LNCaP cells; Homo sapiens, LNCaP, 24 h",26.8 ± 1.51 µM
